Series [1] has as its system Human alphaherpesvirus 1. Description: Antiviral activity against HSV-1 infected in African green monkey Vero cells assessed as reduction in viral growth by measuring relative cell viability at 20 uM incubated for 72 hrs by MTT assay. It is filed as functional.
A short description of series [2]: Fluorescence property of compound in crystal assessed as maximum emission wavelength in presence of fluorescein by spectrophotometric analysis. The class given is physicochemical.
The nature of series [3]: Fluorescence property of compound in H2O assessed as maximum emission wavelength in presence of fluorescein by spectrophotometric analysis. It is filed as physicochemical.
Series [4] can be described thus: Fluorescence property of compound in cyclohexane assessed as maximum emission wavelength in presence of fluorescein by spectrophotometric analysis. It is filed as physicochemical.
A short description of series [5]: Fluorescence property of compound in H2O assessed as fluorescence quantum yield in presence of fluorescein by spectrophotometric analysis. The class given is physicochemical.
Series [6] in a line: Drug accumulation in African green monkey Vero cells assessed as subcellular localization in endoplasmic reticulum at 20 uM incubated for 1 to 24 hr by Me-THP-Naph staining based confocal scanning laser microscopic analysis. The conditions noted are these: chlorocebus sabaeus, time 1-24 hrs. It is filed as ADME, cell-based.
Series [7] can be described thus: Fluorescence property of compound in cyclohexane assessed as fluorescence quantum yield in presence of fluorescein by spectrophotometric analysis. The class given is physicochemical.
Series [8] is described as follows: Fluorescence property of compound in crystal assessed as fluorescence quantum yield in presence of fluorescein by spectrophotometric analysis. It is filed as physicochemical.
The test system of series [9] is Human alphaherpesvirus 1. Briefly: Antiviral activity against HSV-1 infected in African green monkey Vero cells assessed as downregulation of viral gD protein expression at 5 to 20 uM by Western blotting analysis. It is filed as functional, organism-based. Conditions: dose 5-20 µM. For orientation: In western blotting, separated proteins are transferred to a membrane and probed.

For series [10], the system named is Human alphaherpesvirus 2. Briefly: Antiviral activity against HSV-2 infected in African green monkey Vero cells assessed as reduction in viral growth incubated for 72 hrs by MTT assay. The class given is functional, organism-based. The conditions noted are these: Human alphaherpesvirus 2, Vero. Background: Tetrazolium dyes change colour on reduction, which living cells bring about.

In series [11] the test system is Human alphaherpesvirus 1. Description: Antiviral activity against HSV-1 infected in African green monkey Vero cells assessed as reduction in viral growth incubated for 72 hrs by MTT assay. It is filed as functional, organism-based. The conditions noted are these: Human alphaherpesvirus 1, Vero.
The test system of series [12] is Human alphaherpesvirus 2. Description: Antiviral activity against ACV-resistant HSV-2 infected in African green monkey Vero cells assessed as reduction in viral growth incubated for 72 hrs by MTT assay. The class given is functional, organism-based. Conditions: Human alphaherpesvirus 2, Vero.
Series [13] has as its system Human alphaherpesvirus 1. Description: Antiviral activity against HSV-1 infected in African green monkey Vero cells assessed as downregulation of viral gD mRNA expression at 5 to 20 uM by RT-qPCR analysis. It is filed as functional, organism-based. Conditions: dose 5-20 µM. A general note: In qPCR the cycle at which signal appears reflects the starting amount.
Series [14] concerns Human alphaherpesvirus 1. Briefly: Antiviral activity against HSV-1 infected in African green monkey Vero cells assessed as downregulation of viral gD mRNA expression at 20 uM incubated under co-treatment condition for 1 hr by RT-qPCR analysis. The class given is functional, organism-based.
Series [15] has as its system Human alphaherpesvirus 1. Briefly: Antiviral activity against HSV-1 infected in African green monkey Vero cells assessed as downregulation of viral gD protein expression at 10 uM incubated for 48 hrs by Western blotting analysis. The class given is functional, organism-based.
The subject of series [16] is Human alphaherpesvirus 1. Briefly: Antiviral activity against HSV-1 infected in African green monkey Vero cells assessed as downregulation of viral gD protein expression at 20 uM pre-treated with compound for 1 hr followed by viral infection by Western blotting analysis. The class given is functional, organism-based.
The nature of series [17]: Cytotoxicity against human HEK293T cells assessed as cell viability at 80 uM incubated for 48 hrs by MTT assay relative to control. It is filed as toxicity, cell-based, HEK-293T. Conditions: read-out: Activity.
Series [18] has as its system Human alphaherpesvirus 1. Briefly: Antiviral activity against HSV-1 infected in African green monkey Vero cells assessed as protection of cellular morphology incubated for 24 hrs by CPE based microscopic analysis. The class given is functional, organism-based.
Series [19] deals with Human alphaherpesvirus 1. Briefly: Antiviral activity against HSV-1 infected in African green monkey Vero cells assessed as downregulation of viral gD protein expression at 20 uM measured after 2 hrs by Western blotting analysis. It is filed as functional, organism-based.
Series [20] relates to Human alphaherpesvirus 1. Description: Antiviral activity against HSV-1 infected in African green monkey Vero cells assessed as downregulation of viral gD mRNA expression at 20 uM incubated under co-plus post treatment condition for 1 hr by RT-qPCR analysis. It is filed as functional, organism-based.
Series [21] deals with Human alphaherpesvirus 1. Description: Antiviral activity against HSV-1 infected in African green monkey Vero cells assessed as reduction in viral plaque formation at 20 uM pre-treated with compound for 36 to 48 hrs followed by viral infection by crystal violet staining based assay. It is filed as functional, organism-based. The conditions noted are these: time 36-48 hrs.

Series [22] deals with HEK-293T. Briefly: Cytotoxicity against human HEK293T cells at 5 to 80 uM incubated for 48 hrs by MTT assay. The class given is toxicity, cell-based. Conditions: dose 5-80 µM.
In series [23] the test system is Human alphaherpesvirus 1. Description: Antiviral activity against HSV-1 infected in African green monkey Vero cells assessed as downregulation of viral gD mRNA expression at 20 uM pre-infected with virus followed by compound treatment by RT-qPCR analysis. It is filed as functional, organism-based.
Series [24] concerns Human alphaherpesvirus 1. Briefly: Antiviral activity against HSV-1 infected in African green monkey Vero cells assessed as downregulation of viral VP16 mRNA expression at 20 uM pre-treated with compound for 1 hr followed by viral infection by RT-qPCR analysis. It is filed as functional, organism-based.
In series [25] the test system is Human alphaherpesvirus 1. Description: Antiviral activity against HSV-1 infected in African green monkey Vero cells assessed as downregulation of viral ICP8 protein expression at 20 uM measured after 2 hrs by Western blotting analysis. The class given is functional, organism-based.
Series [26] relates to Human alphaherpesvirus 1. Description: Antiviral activity against HSV-1 infected in African green monkey Vero cells assessed as downregulation of viral VP16 mRNA expression at 20 uM incubated under co-treatment condition for 1 hr by RT-qPCR analysis. It is filed as functional, organism-based.
Series [27] relates to Human alphaherpesvirus 1. Description: Antiviral activity against HSV-1 infected in African green monkey Vero cells assessed as downregulation of viral gD mRNA expression at 20 uM pre-treated with compound for 1 hr followed by viral infection by RT-qPCR analysis. It is filed as functional, organism-based.
Series [28] relates to Human alphaherpesvirus 2. Description: Antiviral activity against ACV-resistant HSV-2 infected in African green monkey Vero cells assessed as downregulation of viral gD protein expression at 20 uM incubated for 48 hrs by Western blotting analysis. It is filed as functional, organism-based.
Series [29] is described as follows: Cytotoxicity against human HEK293T cells incubated for 48 hrs by MTT assay. The class given is toxicity, cell-based, HEK-293T.
In series [30] the test system is Human alphaherpesvirus 1. Description: Antiviral activity against HSV-1 infected in African green monkey Vero cells assessed as downregulation of viral VP16 mRNA expression at 20 uM incubated under co-plus post treatment condition for 1 hr by RT-qPCR analysis. The class given is functional, organism-based.
Series [31] concerns Human alphaherpesvirus 1. Description: Antiviral activity against HSV-1 infected in African green monkey Vero cells assessed as downregulation of viral gD mRNA expression incubated for 48 hrs by RT-qPCR analysis. It is filed as functional, organism-based.
Series [32] deals with Human alphaherpesvirus 1. Briefly: Antiviral activity against HSV-1 infected in African green monkey Vero cells assessed as downregulation of viral VP16 mRNA expression incubated for 48 hrs by RT-qPCR analysis. It is filed as functional, organism-based.
Series [33] relates to Human alphaherpesvirus 1. Description: Antiviral activity against HSV-1 infected in African green monkey Vero cells assessed as downregulation of viral ICP8 protein expression at 20 uM pre-treated with compound for 1 hr followed by viral infection by Western blotting analysis. The class given is functional, organism-based.
The test system of series [34] is Human alphaherpesvirus 2. Briefly: Antiviral activity against HSV-2 infected in African green monkey Vero cells assessed as protection of cellular morphology incubated for 24 hrs CPE based microscopic analysis. It is filed as functional, organism-based.
Series [35] deals with Human alphaherpesvirus 1. Description: Antiviral activity against HSV-1 infected in African green monkey Vero cells assessed as downregulation of viral VP16 mRNA expression at 20 uM pre-infected with virus followed by compound treatment by RT-qPCR analysis. It is filed as functional, organism-based.
Series [36] relates to Human alphaherpesvirus 1. Description: Antiviral activity against HSV-1 infected in African green monkey Vero cells assessed as reduction in viral growth by measuring relative cell viability at 5 uM incubated for 72 hrs by MTT assay. It is filed as functional.

SMILES strings stand for the structures. Active and inactive are the calls of the source. The rule behind the calls is not given here.

On to `CN1c2c(C#N)c(F)c(F)c(C#N)c2N(C)[C@@H]2CCCC[C@H]21`, for which the Activity is listed as 8% in series [1]; 560 nm in [2]; 555 nm in series [3]; 515 nm in series [4]; 57.1% in series [5]; 90.3% in [7]. Further, in series [8], the Activity is on record as 57.3%. In [6], the Drug uptake entry was “Active”.
A word on the EC50: it is the concentration giving half of the maximal effect. For `CN1c2c(C#N)c(F)c(F)c(C#N)c2N(C)[C@H]2CCCC[C@@H]21`, the outcome in series [9] and in series [13] was Active. The Activity in series [1] turned out to be 40%; in series [2], 560 nm; in [3] it was 555 nm; in series [4], 515 nm; in [5], 59.1%; in series [7] it was 92.3%. Moreover, the Activity in [8] came out at 56.9%. For the same compound, the concentration giving a half-maximal response (EC50) stood at 5.8 µM in series [10], 4.1 µM in series [11] and 7.9 µM in [12]. In addition, the Drug uptake result in series [6] is recorded as “Active”.
With `CN1c2c(C#N)c3c(c(C#N)c2N(C)C2CCCCC21)OCCN3` (racemic), the Activity in [1] is given as 1%.
As to `CN1c2c(C#N)c3c(c(C#N)c2N(C)C2CCCCC21)OCCO3` (racemic), the Activity in [1] came to 0%.
Still for that read-out and setting: under `N#Cc1c(F)c(F)c(C#N)c2c1NC1CCCCC1N2` (racemic) stands 7%; under `CN1c2c(C#N)c(F)c(N3CCCC3)c(C#N)c2N(C)C2CCCCC21` (racemic), 9%.
With `CN1c2c(C#N)c(F)c(N3CCCCC3)c(C#N)c2N(C)C2CCCCC21` (racemic), the Activity in series [1] was 6%.
Turning to `CN(C)c1c(F)c(C#N)c2c(c1C#N)N(C)C1CCCCC1N2C` (racemic), the Activity in [1] is 5%.
Same read-out and setting: in the case of `CN1CCOc2c(C#N)c3c(c(C#N)c21)N(C)C1CCCCC1N3C` (racemic) it was 4%; in that of `CN1c2c(C#N)c(F)c(N3CCOCC3)c(C#N)c2N(C)C2CCCCC21` (racemic), 8%.
The term CC50 denotes the concentration at which the toxic effect on the cells reaches its halfway point. As for `CN1c2c(C#N)c(F)c(F)c(C#N)c2N(C)C2CCCCC21` (racemic), the outcome in series [14], in series [24] and in series [27] was inactive. Besides, the result in series [15], in [16], in series [19], in [20], in series [21] and in series [23] was Active. Moreover, the outcome in series [25], in [26], in series [28], in series [30], in [33] and in [35] was Active. Also, the Activity in series [1] is 39%; in series [18], “Dose-Dependent Effect”; in [2], 558 nm; in series [22], “Non-Toxic”; in series [3], 555 nm; in series [4], 515 nm. Also, the Activity result in series [31] is “Dose-Dependent Effect”; in series [32], “Dose-Dependent Effect”; in series [34], “Dose-Dependent Effect”; in series [5], 56.2%; in [7], 91.6%; in [8], 54.4%. The EC50 in series [10] worked out at 11 µM; in series [11] it was 9.2 µM; in [12], 14.9 µM. In addition, the viability at 48 h, 80 µM in [17] was found to be 100%. For the same compound, the CC50 at 48 h in series [29] was more than 100 µM. Further, the Drug uptake entry in series [6] was “Active”.
Consider `CN1c2c(F)c(C#N)c(F)c(C#N)c2N(C)C2CCCCC21` (racemic), for which the Activity in series [1] worked out at 0%.
The same measure, in the same setting: in the case of `CN1c2c(F)c(C#N)c(C#N)c(F)c2N(C)C2CCCCC21` (racemic) it was 3%.
As for `Nc1nc2c(ncn2COCCO)c(=O)[nH]1` [ACYCLOVIR], in series [36], the Activity amounted to 81%.
